IC50 data for seven compounds are collected here from PubChem BioAssay AID1117322.

Structures are written as SMILES. The source made the active and inactive calls. No rule for the calls is given here.

The test concerns RKO cells viability, CellTiter-Glo ATP luminescence. The experiment in a line: RKO cell viability reduction, dose response, CellTiter-Glo luminescence (AID 1117322). For orientation: In ATP-based viability assays light output follows the ATP content of the culture.

As usually defined, the IC50 is the concentration needed to halve the response being measured.

In the case of `O=C1[O][Bi][O]c2ccccc21`, the IC50 was > 20 µM (inactive).

As for `OCCN1CCN(CC/C=C2/c3ccccc3Sc3ccc(C(F)(F)F)cc32)CC1`, the IC50 was 0.318 µM.

As for `O=Cc1ccc(O)c(O)c1O`, the IC50 is 6.23 µM (inactive).

Consider `CC(C)n1c(/C=C/[C@@H](O)C[C@@H](O)CC(=O)O)c(-c2ccc(F)cc2)c2ccccc21`, for which the IC50 was 19.2 µM (inactive).

Consider `CCCCCCCCCCCCCC[N+](C)(C)C`, for which the IC50 was 0.147 µM.

On to `CC(=O)[O][Hg][c]1ccccc1`, for which the IC50 is 1.2 µM.

For `O=C(O)C1(C(=O)O)CCC1.[NH2-].[NH2-].[Pt+2]`, the IC50 is > 20 µM (inactive).
